Assay results reported in PubChem BioAssay AID2060909 (Molecular Pharmacology Branch, DTP, NCI, 2025).

Test system: 362531-283-R-J2-PDC complex spheroid viability
Assay: Anticancer human tumor 362531-283-R-J2-PDC patient-derived colon adenocarcinoma cell line growth inhibition [RAS]
Conditions: for IC50: curve of first compound; for viability, T/C: stronger effect = lower value; active = viability on the fitted dose curve at most 10% of control; inactive = the rest
In short: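 Multi-cell-type spheroids: tumor cells plus HUVEC endothelial cells and mesenchymal stem cells. RAS-pathway inhibitors were combined with targeted agents, each dosed in half-log steps down from clinical Cmax, or from 10 microM when Cmax was unknown.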

[1] = second compound 0.000949 µM, first compound 0.00316 µM
[2] = second compound 0.000949 µM, first compound 0.01 µM
[3] = second compound 0.000949 µM, first compound 0.0316 µM
[4] = second compound 0.000949 µM, first compound 0.1 µM
[5] = second compound 0.003 µM, first compound 0.00316 µM
[6] = second compound 0.003 µM, first compound 0.01 µM
[7] = second compound 0.003 µM, first compound 0.0316 µM
[8] = second compound 0.003 µM, first compound 0.1 µM
[9] = second compound 0.00949 µM, first compound 0.00316 µM
[10] = second compound 0.00949 µM, first compound 0.01 µM
[11] = second compound 0.00949 µM, first compound 0.0316 µM
[12] = second compound 0.00949 µM, first compound 0.1 µM
[13] = second compound 0.03 µM, first compound 0.00316 µM
[14] = second compound 0.03 µM, first compound 0.01 µM
[15] = second compound 0.03 µM, first compound 0.0316 µM
[16] = second compound 0.03 µM, first compound 0.1 µM
[17] = second compound 0.0949 µM, first compound 0.00316 µM
[18] = second compound 0.0949 µM, first compound 0.01 µM
[19] = second compound 0.0949 µM, first compound 0.0316 µM
[20] = second compound 0.0949 µM, first compound 0.1 µM
[21] = second compound 0.3 µM, first compound 0.00316 µM
[22] = second compound 0.3 µM, first compound 0.01 µM
[23] = second compound 0.3 µM, first compound 0.0316 µM
[24] = second compound 0.3 µM, first compound 0.1 µM
[25] = second compound 0.000949 µM, first compound 0.316 µM
[26] = second compound 0.000949 µM, first compound 1 µM
[27] = second compound 0.003 µM, first compound 0.316 µM
[28] = second compound 0.003 µM, first compound 1 µM
[29] = second compound 0.00949 µM, first compound 0.316 µM
[30] = second compound 0.00949 µM, first compound 1 µM
[31] = second compound 0.03 µM, first compound 0.316 µM
[32] = second compound 0.03 µM, first compound 1 µM
[33] = second compound 0.0949 µM, first compound 0.316 µM
[34] = second compound 0.0949 µM, first compound 1 µM
[35] = second compound 0.3 µM, first compound 0.316 µM
[36] = second compound 0.3 µM, first compound 1 µM
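Note: spheroids exposed to the agents for 7 days before readout.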
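Throughout, for viability, T/C: luminescence viability as percent of DMSO vehicle control wells.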

CC(C)n1nc(-c2ccc3oc(N)nc3c2)c2c(N)ncnc21 + CCn1c(-c2cccnc2C(C)OC)c2c3cc(ccc31)N1CCOC(CC(NC(=O)C(C(C)C)N(C)C(=O)C3(F)CCN(C(=O)C#CC(C)(C)N(C)C)CC3)C(=O)N3CCCC(N3)C(=O)OCC(C)(C)C2)C1
52.3 nM: IC50 (second compound 0.00949 µM)
65.4 nM: IC50 (second compound 0.3 µM)
70.8 nM: IC50 (second compound 0.000949 µM)
inactive: viability, T/C (second compound 0.000949 µM, first compound 0.000316 µM) 95.5% | viability, T/C (second compound 0.000949 µM, first compound 0.001 µM) 98.7% | viability, T/C [1] 108% | viability, T/C [2] 96.2% | viability, T/C [3] 75% | viability, T/C [4] 39.4% | viability, T/C (second compound 0.003 µM, first compound 0.000316 µM) 99.9% | viability, T/C (second compound 0.003 µM, first compound 0.001 µM) 92.8% | viability, T/C [5] 102% | viability, T/C [6] 92.2% | viability, T/C [7] 74.5% | viability, T/C [8] 46.2% | viability, T/C (second compound 0.00949 µM, first compound 0.000316 µM) 98.9% | viability, T/C (second compound 0.00949 µM, first compound 0.001 µM) 108% | viability, T/C [9] 92.9% | viability, T/C [10] 114% | viability, T/C [11] 57.3% | viability, T/C [12] 40.6% | viability, T/C (second compound 0.03 µM, first compound 0.000316 µM) 103% | viability, T/C (second compound 0.03 µM, first compound 0.001 µM) 93% | viability, T/C [13] 107% | viability, T/C [14] 95.5% | viability, T/C [15] 63.9% | viability, T/C [16] 43.2% | viability, T/C (second compound 0.0949 µM, first compound 0.000316 µM) 90.4% | viability, T/C (second compound 0.0949 µM, first compound 0.001 µM) 93.9% | viability, T/C [17] 95.5% | viability, T/C [18] 106% | viability, T/C [19] 68.7% | viability, T/C [20] 43.1% | viability, T/C (second compound 0.3 µM, first compound 0.000316 µM) 87.9% | viability, T/C (second compound 0.3 µM, first compound 0.001 µM) 105% | viability, T/C [21] 103% | viability, T/C [22] 103% | viability, T/C [23] 71.8% | viability, T/C [24] 37.3%
68.6 nM: IC50 (second compound 0.03 µM)
85.7 nM: IC50 (second compound 0.003 µM)
73.3 nM: IC50 (second compound 0.0949 µM)

CCN1CCN(Cc2ccc(Nc3ncc(F)c(-c4cc(F)c5nc(C)n(C(C)C)c5c4)n3)nc2)CC1 + CCn1c(-c2cccnc2C(C)OC)c2c3cc(ccc31)N1CCOC(CC(NC(=O)C(C(C)C)N(C)C(=O)C3(F)CCN(C(=O)C#CC(C)(C)N(C)C)CC3)C(=O)N3CCCC(N3)C(=O)OCC(C)(C)C2)C1
876 nM: IC50 (second compound 0.00949 µM)
719 nM: IC50 (second compound 0.003 µM)
inactive: viability, T/C [1] 96% | viability, T/C [2] 92% | viability, T/C [3] 67.3% | viability, T/C [4] 83.8% | viability, T/C [25] 66.4% | viability, T/C [26] 46.7% | viability, T/C [5] 108% | viability, T/C [6] 98.5% | viability, T/C [7] 65.6% | viability, T/C [8] 73% | viability, T/C [27] 66.6% | viability, T/C [28] 40.9% | viability, T/C [9] 105% | viability, T/C [10] 105% | viability, T/C [11] 55.3% | viability, T/C [12] 74.4% | viability, T/C [29] 59.8% | viability, T/C [30] 45.7% | viability, T/C [13] 112% | viability, T/C [14] 94.2% | viability, T/C [15] 57.5% | viability, T/C [16] 65.8% | viability, T/C [31] 66.1% | viability, T/C [32] 43.4% | viability, T/C [17] 103% | viability, T/C [18] 88.3% | viability, T/C [19] 53.4% | viability, T/C [20] 69% | viability, T/C [33] 65% | viability, T/C [34] 46.6% | viability, T/C [21] 100% | viability, T/C [22] 82.5% | viability, T/C [23] 56.4% | viability, T/C [24] 64.9% | viability, T/C [35] 57.2% | viability, T/C [36] 40.9%
> 1000 nM: IC50 (second compound 0.000949 µM) | IC50 (second compound 0.03 µM) | IC50 (second compound 0.0949 µM)
437 nM: IC50 (second compound 0.3 µM)

C[C@@H](NC(=O)c1ncnc(N)c1Cl)c1ncc(C(=O)Nc2cc(C(F)(F)F)c(Cl)cn2)s1 + CCn1c(-c2cccnc2C(C)OC)c2c3cc(ccc31)N1CCOC(CC(NC(=O)C(C(C)C)N(C)C(=O)C3(F)CCN(C(=O)C#CC(C)(C)N(C)C)CC3)C(=O)N3CCCC(N3)C(=O)OCC(C)(C)C2)C1
inactive: viability, T/C [3] 111% | viability, T/C [4] 107% | viability, T/C [25] 91.5% | viability, T/C [26] 106% | viability, T/C (second compound 0.000949 µM, first compound 3.16 µM) 73.3% | viability, T/C (second compound 0.000949 µM, first compound 10 µM) 61.4% | viability, T/C [7] 112% | viability, T/C [8] 94% | viability, T/C [27] 109% | viability, T/C [28] 92.5% | viability, T/C (second compound 0.003 µM, first compound 3.16 µM) 79.2% | viability, T/C (second compound 0.003 µM, first compound 10 µM) 66% | viability, T/C [11] 105% | viability, T/C [12] 108% | viability, T/C [29] 87.1% | viability, T/C [30] 88.5% | viability, T/C (second compound 0.00949 µM, first compound 3.16 µM) 82.1% | viability, T/C (second compound 0.00949 µM, first compound 10 µM) 73.6% | viability, T/C [15] 107% | viability, T/C [16] 99.3% | viability, T/C [31] 105% | viability, T/C [32] 91.7% | viability, T/C (second compound 0.03 µM, first compound 3.16 µM) 89.7% | viability, T/C (second compound 0.03 µM, first compound 10 µM) 64.9% | viability, T/C [19] 97.9% | viability, T/C [20] 96.1% | viability, T/C [33] 89.5% | viability, T/C [34] 91.4% | viability, T/C (second compound 0.0949 µM, first compound 3.16 µM) 87.7% | viability, T/C (second compound 0.0949 µM, first compound 10 µM) 73.9% | viability, T/C [23] 103% | viability, T/C [24] 101% | viability, T/C [35] 85.4% | viability, T/C [36] 87.1% | viability, T/C (second compound 0.3 µM, first compound 3.16 µM) 91.9% | viability, T/C (second compound 0.3 µM, first compound 10 µM) 80.1%
> 10000 nM: IC50 (second compound 0.000949 µM) | IC50 (second compound 0.003 µM) | IC50 (second compound 0.00949 µM) | IC50 (second compound 0.03 µM) | IC50 (second compound 0.0949 µM) | IC50 (second compound 0.3 µM)
